Experiments:
Test in all cases: biochemical
[1] = target: T1, panel of 374 wild-type kinases (Homo sapiens, UniProt O00238); conditions: read-out: % Enzyme Activity (relative to DMSO controls), ALK6/BMPR1B
T1 construct: purchased Reaction Biology Corporation

[2] = target: T2, panel of 374 wild-type kinases (Homo sapiens, UniProt P00533); conditions: read-out: % Enzyme Activity (relative to DMSO controls), EGFR
T2 construct: purchased Reaction Biology Corporation

[3] = target: T3, panel of 374 wild-type kinases (Homo sapiens, UniProt Q07912); conditions: read-out: % Enzyme Activity (relative to DMSO controls), ACK1
T3 construct: purchased Reaction Biology Corporation

[4] = target: T4, panel of 374 wild-type kinases (Homo sapiens, UniProt P29320); conditions: read-out: % Enzyme Activity (relative to DMSO controls), EPHA3
T4 construct: purchased Reaction Biology Corporation
T4 sequence (P29320 21-983): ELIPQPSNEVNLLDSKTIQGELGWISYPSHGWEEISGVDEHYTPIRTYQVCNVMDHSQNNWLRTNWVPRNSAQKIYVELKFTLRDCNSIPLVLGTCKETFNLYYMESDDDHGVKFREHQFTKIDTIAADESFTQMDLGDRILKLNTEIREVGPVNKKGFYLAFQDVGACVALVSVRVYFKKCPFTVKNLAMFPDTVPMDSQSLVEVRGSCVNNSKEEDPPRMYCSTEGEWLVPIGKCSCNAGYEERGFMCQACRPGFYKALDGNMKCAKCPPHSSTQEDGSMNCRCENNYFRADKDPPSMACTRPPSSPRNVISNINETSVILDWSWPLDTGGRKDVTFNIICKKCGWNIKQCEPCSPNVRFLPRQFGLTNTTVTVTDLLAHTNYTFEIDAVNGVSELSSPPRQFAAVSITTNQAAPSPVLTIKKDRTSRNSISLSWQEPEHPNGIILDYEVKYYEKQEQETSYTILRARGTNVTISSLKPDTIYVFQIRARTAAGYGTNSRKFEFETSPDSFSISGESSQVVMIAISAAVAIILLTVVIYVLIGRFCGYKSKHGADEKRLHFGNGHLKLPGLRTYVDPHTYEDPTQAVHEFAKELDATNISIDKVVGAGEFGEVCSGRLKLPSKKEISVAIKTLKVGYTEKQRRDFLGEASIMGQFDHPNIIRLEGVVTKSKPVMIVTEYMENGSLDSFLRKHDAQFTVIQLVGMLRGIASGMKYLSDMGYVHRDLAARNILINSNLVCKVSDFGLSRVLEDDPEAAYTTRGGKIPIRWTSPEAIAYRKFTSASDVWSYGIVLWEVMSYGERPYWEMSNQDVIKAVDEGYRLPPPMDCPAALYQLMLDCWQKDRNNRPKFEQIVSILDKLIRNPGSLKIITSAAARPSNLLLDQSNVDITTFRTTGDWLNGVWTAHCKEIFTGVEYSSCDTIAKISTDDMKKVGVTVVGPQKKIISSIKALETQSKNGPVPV

[5] = target: T5, panel of 374 wild-type kinases (Homo sapiens, UniProt Q5TCY1); conditions: kinase TTBK1, read-out: % Enzyme Activity (relative to DMSO controls)
T5 construct: purchased Reaction Biology Corporation

[6] = target: T6, panel of 374 wild-type kinases (Homo sapiens, UniProt P36897); conditions: read-out: % Enzyme Activity (relative to DMSO controls), ALK5/TGFBR1
T6 construct: purchased Reaction Biology Corporation
T6 sequence (P36897 34-503): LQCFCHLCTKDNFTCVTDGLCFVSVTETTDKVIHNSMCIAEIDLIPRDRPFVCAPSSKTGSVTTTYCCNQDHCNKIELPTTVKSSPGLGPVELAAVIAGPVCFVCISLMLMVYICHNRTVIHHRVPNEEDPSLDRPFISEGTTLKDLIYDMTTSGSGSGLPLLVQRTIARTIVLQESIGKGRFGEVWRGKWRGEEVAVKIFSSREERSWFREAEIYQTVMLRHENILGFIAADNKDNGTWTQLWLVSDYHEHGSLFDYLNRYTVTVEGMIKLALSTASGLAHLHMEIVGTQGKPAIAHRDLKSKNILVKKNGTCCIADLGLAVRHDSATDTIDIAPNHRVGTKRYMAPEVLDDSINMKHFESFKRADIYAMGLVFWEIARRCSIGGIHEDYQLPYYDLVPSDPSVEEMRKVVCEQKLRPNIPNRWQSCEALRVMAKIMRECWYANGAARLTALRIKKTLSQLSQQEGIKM

[7] = target: T7, panel of 374 wild-type kinases (Homo sapiens, UniProt Q14164); conditions: read-out: % Enzyme Activity (relative to DMSO controls), IKKe/IKBKE
T7 construct: purchased Reaction Biology Corporation
T7 sequence (Q14164 1-716): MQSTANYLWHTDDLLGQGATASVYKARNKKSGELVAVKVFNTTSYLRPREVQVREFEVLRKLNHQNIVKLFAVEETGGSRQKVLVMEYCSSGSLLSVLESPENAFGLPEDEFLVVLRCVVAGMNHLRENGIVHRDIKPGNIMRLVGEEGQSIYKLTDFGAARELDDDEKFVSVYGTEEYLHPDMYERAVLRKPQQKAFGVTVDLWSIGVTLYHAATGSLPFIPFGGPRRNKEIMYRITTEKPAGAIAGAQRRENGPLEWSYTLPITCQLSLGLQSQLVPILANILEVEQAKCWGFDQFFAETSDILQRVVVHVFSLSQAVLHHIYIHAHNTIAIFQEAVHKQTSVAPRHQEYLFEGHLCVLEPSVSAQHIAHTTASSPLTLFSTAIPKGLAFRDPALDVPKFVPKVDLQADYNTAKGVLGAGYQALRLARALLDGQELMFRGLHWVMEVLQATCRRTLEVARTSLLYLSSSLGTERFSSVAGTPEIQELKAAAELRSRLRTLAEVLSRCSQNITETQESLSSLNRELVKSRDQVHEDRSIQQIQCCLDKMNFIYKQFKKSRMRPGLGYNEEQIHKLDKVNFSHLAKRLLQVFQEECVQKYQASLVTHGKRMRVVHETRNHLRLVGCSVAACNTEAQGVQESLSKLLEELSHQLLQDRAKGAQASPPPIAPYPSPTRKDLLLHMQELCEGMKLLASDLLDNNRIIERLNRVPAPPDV

[8] = target: T8, panel of 374 wild-type kinases (Homo sapiens, UniProt Q9Y243); conditions: read-out: % Enzyme Activity (relative to DMSO controls), AKT3
T8 construct: purchased Reaction Biology Corporation

[9] = target: T9, panel of 374 wild-type kinases (Homo sapiens, UniProt Q13555); conditions: read-out: % Enzyme Activity (relative to DMSO controls), CAMK2g
T9 construct: purchased Reaction Biology Corporation
T9 sequence (Q13555 whole entry): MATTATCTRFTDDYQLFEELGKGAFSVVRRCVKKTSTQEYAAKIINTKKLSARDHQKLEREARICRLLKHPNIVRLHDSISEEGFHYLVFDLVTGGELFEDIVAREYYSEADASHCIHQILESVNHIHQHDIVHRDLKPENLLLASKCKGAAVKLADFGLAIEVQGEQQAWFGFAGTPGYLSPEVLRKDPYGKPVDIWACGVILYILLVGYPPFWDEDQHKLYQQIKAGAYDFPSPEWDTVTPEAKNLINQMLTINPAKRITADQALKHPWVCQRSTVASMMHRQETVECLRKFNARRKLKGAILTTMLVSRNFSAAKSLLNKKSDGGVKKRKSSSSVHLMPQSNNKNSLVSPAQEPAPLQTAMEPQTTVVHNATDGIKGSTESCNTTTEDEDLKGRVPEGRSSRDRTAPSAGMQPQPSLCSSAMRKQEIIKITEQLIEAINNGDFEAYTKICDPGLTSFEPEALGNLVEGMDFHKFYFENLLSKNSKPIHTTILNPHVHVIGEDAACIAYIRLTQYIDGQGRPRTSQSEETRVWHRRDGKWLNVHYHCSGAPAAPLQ

T1 sequence (O00238 14-502): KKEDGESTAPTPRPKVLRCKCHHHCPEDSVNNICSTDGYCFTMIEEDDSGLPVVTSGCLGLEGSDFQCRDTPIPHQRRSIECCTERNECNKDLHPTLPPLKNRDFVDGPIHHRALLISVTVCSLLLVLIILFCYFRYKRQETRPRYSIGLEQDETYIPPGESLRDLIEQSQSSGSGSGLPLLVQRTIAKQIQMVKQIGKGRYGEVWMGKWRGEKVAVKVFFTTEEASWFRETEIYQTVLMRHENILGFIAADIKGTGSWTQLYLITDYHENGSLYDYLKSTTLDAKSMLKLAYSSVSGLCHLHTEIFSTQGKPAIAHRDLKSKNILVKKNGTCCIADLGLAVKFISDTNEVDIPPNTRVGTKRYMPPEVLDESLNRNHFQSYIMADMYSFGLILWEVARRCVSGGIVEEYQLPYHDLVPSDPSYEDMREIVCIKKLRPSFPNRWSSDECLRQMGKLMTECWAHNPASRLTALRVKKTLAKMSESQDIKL
T3 sequence (Q07912 whole entry): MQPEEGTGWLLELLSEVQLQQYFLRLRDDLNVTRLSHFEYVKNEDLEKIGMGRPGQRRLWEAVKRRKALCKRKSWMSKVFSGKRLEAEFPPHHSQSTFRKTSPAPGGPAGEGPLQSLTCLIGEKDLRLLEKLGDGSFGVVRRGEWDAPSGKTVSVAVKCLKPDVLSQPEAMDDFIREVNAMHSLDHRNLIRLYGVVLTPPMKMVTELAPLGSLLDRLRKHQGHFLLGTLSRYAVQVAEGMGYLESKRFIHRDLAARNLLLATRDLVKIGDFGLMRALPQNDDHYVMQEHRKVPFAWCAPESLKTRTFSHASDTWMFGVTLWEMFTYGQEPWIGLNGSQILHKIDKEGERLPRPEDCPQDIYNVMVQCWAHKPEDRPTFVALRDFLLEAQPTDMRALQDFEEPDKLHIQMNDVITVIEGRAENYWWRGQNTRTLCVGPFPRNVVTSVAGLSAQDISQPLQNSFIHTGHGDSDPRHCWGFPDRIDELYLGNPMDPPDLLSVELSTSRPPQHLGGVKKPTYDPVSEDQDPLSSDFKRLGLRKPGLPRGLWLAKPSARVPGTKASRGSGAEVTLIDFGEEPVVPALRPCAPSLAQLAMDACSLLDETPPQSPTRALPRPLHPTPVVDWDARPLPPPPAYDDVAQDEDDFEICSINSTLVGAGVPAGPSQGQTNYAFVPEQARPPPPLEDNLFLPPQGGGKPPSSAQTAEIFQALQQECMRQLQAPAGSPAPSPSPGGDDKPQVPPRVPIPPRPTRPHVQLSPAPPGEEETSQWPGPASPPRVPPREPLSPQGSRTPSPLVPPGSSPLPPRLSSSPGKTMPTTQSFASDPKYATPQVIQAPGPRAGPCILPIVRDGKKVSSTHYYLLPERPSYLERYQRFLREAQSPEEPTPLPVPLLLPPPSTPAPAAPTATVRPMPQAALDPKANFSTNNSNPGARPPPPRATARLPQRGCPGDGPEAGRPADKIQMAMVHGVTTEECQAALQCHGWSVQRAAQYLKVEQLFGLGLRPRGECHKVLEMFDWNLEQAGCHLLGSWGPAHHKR
T2 sequence (P00533 25-1210): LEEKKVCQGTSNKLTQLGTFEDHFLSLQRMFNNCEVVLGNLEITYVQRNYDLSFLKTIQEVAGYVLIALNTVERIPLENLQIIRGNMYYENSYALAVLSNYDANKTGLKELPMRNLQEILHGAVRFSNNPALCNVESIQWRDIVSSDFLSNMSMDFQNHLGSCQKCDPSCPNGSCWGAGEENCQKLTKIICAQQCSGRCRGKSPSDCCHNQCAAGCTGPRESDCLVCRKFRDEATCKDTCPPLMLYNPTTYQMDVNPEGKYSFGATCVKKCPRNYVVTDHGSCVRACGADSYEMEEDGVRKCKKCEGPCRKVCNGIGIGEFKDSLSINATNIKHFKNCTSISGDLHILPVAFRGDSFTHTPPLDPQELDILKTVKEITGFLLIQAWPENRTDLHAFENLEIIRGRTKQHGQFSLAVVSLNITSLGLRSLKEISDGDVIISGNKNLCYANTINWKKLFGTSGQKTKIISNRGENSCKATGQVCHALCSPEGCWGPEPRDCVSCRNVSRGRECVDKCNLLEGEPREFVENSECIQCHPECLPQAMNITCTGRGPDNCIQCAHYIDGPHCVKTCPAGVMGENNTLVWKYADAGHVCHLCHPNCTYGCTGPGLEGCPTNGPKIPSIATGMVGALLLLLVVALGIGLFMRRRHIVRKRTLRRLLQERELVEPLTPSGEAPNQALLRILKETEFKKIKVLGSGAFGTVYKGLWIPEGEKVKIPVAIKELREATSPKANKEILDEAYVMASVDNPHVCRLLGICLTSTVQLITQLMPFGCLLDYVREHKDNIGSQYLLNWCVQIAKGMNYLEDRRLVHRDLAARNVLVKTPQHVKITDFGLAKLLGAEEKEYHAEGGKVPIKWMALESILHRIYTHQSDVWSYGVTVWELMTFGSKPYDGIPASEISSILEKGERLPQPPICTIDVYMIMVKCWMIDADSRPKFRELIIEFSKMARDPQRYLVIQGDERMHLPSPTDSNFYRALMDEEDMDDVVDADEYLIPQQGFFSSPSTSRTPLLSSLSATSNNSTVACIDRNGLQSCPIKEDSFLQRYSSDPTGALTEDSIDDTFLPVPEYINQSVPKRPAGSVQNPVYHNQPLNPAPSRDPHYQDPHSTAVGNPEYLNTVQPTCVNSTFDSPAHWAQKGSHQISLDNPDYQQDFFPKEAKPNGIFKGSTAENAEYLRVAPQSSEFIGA
T8 sequence (Q9Y243 whole entry): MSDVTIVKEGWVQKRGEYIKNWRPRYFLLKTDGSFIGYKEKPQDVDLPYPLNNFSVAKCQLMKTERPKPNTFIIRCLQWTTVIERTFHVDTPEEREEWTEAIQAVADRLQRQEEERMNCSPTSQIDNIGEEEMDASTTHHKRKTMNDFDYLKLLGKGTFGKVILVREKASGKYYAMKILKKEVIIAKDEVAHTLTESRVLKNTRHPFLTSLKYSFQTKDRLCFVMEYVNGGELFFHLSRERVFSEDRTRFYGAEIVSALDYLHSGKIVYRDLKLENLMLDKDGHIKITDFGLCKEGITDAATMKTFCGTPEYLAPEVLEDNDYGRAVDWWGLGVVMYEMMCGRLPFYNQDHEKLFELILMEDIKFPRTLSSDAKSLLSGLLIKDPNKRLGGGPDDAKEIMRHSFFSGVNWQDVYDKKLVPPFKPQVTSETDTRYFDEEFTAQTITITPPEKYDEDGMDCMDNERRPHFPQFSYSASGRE
T5 sequence (Q5TCY1 whole entry): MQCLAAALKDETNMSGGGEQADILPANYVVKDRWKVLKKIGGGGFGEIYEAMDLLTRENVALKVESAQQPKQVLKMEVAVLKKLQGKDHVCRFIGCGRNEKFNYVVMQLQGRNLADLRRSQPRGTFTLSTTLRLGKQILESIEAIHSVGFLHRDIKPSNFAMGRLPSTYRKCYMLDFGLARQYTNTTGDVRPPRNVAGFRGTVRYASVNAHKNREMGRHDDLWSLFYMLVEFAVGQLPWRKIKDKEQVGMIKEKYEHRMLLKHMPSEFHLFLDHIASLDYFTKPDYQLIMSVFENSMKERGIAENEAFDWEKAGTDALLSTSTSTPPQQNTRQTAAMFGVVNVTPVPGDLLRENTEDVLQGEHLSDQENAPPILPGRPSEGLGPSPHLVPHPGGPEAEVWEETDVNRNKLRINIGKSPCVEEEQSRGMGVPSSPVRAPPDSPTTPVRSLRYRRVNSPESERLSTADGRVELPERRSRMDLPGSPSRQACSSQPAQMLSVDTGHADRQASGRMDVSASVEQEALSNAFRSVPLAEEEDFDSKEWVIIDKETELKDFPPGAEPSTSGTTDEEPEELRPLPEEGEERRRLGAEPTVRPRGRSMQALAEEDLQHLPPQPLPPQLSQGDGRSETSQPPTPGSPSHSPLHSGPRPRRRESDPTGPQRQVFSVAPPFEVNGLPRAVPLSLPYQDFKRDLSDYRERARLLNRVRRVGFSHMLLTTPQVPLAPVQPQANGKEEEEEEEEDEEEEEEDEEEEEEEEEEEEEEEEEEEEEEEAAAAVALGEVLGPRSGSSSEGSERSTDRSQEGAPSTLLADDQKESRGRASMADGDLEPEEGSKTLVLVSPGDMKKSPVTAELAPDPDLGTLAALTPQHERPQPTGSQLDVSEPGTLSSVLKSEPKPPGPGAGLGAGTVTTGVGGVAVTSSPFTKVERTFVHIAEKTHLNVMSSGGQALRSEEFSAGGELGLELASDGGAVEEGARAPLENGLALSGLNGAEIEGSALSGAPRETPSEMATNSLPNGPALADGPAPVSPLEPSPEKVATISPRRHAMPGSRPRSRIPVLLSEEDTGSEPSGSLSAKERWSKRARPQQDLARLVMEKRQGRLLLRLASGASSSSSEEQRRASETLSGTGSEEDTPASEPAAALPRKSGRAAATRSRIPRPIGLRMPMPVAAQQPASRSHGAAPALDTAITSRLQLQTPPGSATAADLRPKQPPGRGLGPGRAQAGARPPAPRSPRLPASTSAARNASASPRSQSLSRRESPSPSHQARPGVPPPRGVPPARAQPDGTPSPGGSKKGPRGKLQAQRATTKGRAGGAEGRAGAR

Structure (SMILES)	remaining activity at 10 µM ([1]; 10 uM) [%]	remaining activity at 10 µM ([2]; 10 uM) [%]	remaining activity at 10 µM ([3]; 10 uM) [%]	remaining activity at 10 µM ([4]; 10 uM) [%]	remaining activity at 10 µM ([5]; 10 uM) [%]	remaining activity at 10 µM ([6]; 10 uM) [%]	remaining activity at 10 µM ([7]; 10 uM) [%]	remaining activity at 10 µM ([8]; 10 uM) [%]	remaining activity at 10 µM ([9]; 10 uM) [%]	remaining activity at 5 µM [1] [%]	remaining activity at 5 µM [2] [%]	remaining activity at 5 µM [3] [%]	remaining activity at 5 µM [4] [%]	remaining activity at 5 µM [5] [%]	remaining activity at 5 µM [6] [%]	remaining activity at 5 µM [7] [%]	remaining activity at 5 µM [8] [%]	remaining activity at 5 µM [9] [%]
Cc1sc(C(=O)NC2COC2)cc1-n1cc(NC(=O)Nc2c(F)cccc2Cl)cn1 [Compound 27, 4-(4-(3-(2-chloro-6-fluorophenyl)ureido)-1H-pyrazol-1-yl)-5-methyl-N-(oxetan-3-yl)thiophene-2-carboxamide]	104	98.5	106	109	113	104	116	94.8	102	–	–	–	–	–	–	–	–	–
O=C(Nc1cnn(-c2csc(C(=O)NC3COC3)c2)c1)Nc1c(F)cccc1Cl [Compound 25, 4-(4-(3-(2-chloro-6-fluorophenyl)ureido)-1H-pyrazol-1-yl)-N-(oxetan-3-yl)thiophene-2-carboxamide]	–	–	–	–	–	–	–	–	–	114	89.4	94.6	96.1	82.3	97.4	96.8	97.6	90.1
O=C(Nc1cnn(-c2csc(C(=O)NC3COC3)c2)c1)Nc1ccccc1Cl [Compound 17, 4-(4-(3-(2-chlorophenyl)ureido)-1H-pyrazol-1-yl)-N-(oxetan-3-yl)thiophene-2-carboxamide]	–	–	–	–	–	–	–	–	–	109	99.7	85.6	104	97.2	103	110	87.3	96.4
